In US4175081A, “5-Substituted thiadiazole ureas” (priority 1977, dated 1979):

Legend:
Crabgrass (CG) [1] = assay: Pre-emergence herbicide test; assay type: in vivo, Digitaria sanquinalis; conditions: Digitaria sanguinalis, pre-emergence, 336 h, two weeks after treatment; for pest or weed control: 2 lb/acre; for pest or weed control at 4483.4 g/ha: 4 lb/acre
Experimental: (§1) Crabgrass (CG)--Digitaria sanquinalis
(§2) All crop and weed species were planted individually in 3' plastic pots containing potting soil. Four seeds each of corn, cotton, and snapbeans were seeded to a depth equal to the diameter of the seed. All other species were surface seeded and sprinkled with screened soil in an amount sufficient to cover the seed. Immediately after planting, all pots were watered by sub-irrigation in greenhouse trays. Pots for the pre-emergence phase were seeded one day before treatment.
(§3) Spray hood constants required to deliver the above volume are as follows:
(§4) Formulations for spray applications were prepared in 50 ml volumes with the following three components: […]
(§5) Spray applications were made in a hood containing a removable belt and fixed spray nozzle. For passage through the spray hood, one pot of each specie (pre-emergence phase) was placed on the rear half of the flat. Treatments were removed to the greenhouse after spraying. Watering during the observation period was done only by sub-irrigation.
(§6) Two weeks after treatment, pre- and post-emergence injury or control was visually rated, and the results were as shown in the following tables. Pre-emergence data are provided in TABLE III and post-emergence data are provided in TABLE IV, for compounds having the formula illustrated in TABLE I. Correspondingly, pre-emergence and post-emergence data, respectively, are set forth in TABLES V AND VI, for compounds having the formula illustrated in TABLE II.

Johnson grass (JG) [2] = assay: Pre-emergence herbicide test; assay type: in vivo, Sorgum helepense; conditions: Sorghum halepense, 336 h, two weeks after treatment; for pest or weed control at 2241.7 g/ha: 2 lb/acre; for pest or weed control at 4483.4 g/ha: 4 lb/acre
Experimental: (§7) Johnson grass (JG)--Sorgum helepense
as §2
(§8) Compounds were tested at rates of application equivalent to 8 lbs. of actual compound per acre in a spray volume of 38 gallons per acre. Spray hood constants required to deliver the above volume are as follows:
(§9) Formulations for spray applications were prepared in 50 ml volumes with the following three components:
(§10) Formulations for the 4 lbs/acre rate were prepared by adjusting the amount of active ingredient accordingly.
as §5, §6

Barnyard grass (BG) [3] = assay: Pre-emergence herbicide test; assay type: in vivo; conditions: Echinochloa crus-galli, 336 h, two weeks after treatment; for pest or weed control at 2241.7 g/ha: 2 lb/acre; for pest or weed control at 4483.4 g/ha: 4 lb/acre
Experimental: (§11) Barnyard grass (BG)--Echinochloa crus-galli
as §2, §8, §9, §10, §5, §6

Turnip (TP) [4] = assay: Pre-emergence herbicide test; assay type: in vivo, Brassica sp.; conditions: Brassica rapa, pre-emergence, 336 h, two weeks after treatment; for pest or weed control at 2241.7 g/ha: 2 lb/acre; for pest or weed control at 4483.4 g/ha: 4 lb/acre
Experimental: (§12) Turnip (TP)--Brassica sp.
as §2, §3, §4, §5, §6

Cotton (CT) [5] = assay: Pre-emergence herbicide test; assay type: in vivo, Gossypium hirsutum var. DPL smooth leaf; conditions: Gossypium hirsutum, 336 h, two weeks after treatment; for pest or weed control at 2241.7 g/ha: 2 lb/acre; for pest or weed control at 4483.4 g/ha: 4 lb/acre
Experimental: (§13) Cotton (CT)--Gossypium hirsutum var. DPL smooth leaf
as §2, §8, §9, §10, §5, §6

Corn (CN) [6] = assay: Pre-emergence herbicide test; assay type: in vivo; conditions: Zea mays, 336 h, two weeks after treatment; for pest or weed control at 2241.7 g/ha: 2 lb/acre; for pest or weed control at 4483.4 g/ha: 4 lb/acre
Experimental: as §2, §8, §9, §10, §5, §6

Bean (BN) [7] = assay: Pre-emergence herbicide test; assay type: in vivo, Phaseolus vulgaris var. Black Valentine; conditions: Phaseolus vulgaris, 336 h, two weeks after treatment; for pest or weed control at 2241.7 g/ha: 2 lb/acre; for pest or weed control at 4483.4 g/ha: 4 lb/acre
Experimental: (§14) Bean (BN)--Phaseolus vulgaris var. Black Valentine
as §2, §8, §9, §10, §5, §6

Crabgrass (CG) [8] = assay: Post-emergence herbicide test; assay type: in vivo, Digitaria sanquinalis; conditions: Digitaria sanguinalis, post-emergence, 336 h, two weeks after treatment; for pest or weed control: 2 lb/acre; for pest or weed control at 4483.4 g/ha: 4 lb/acre
Experimental: as §1, §2
(§15) Planting dates for the post-emergence phase were varied so that all seedlings would reach the desired stage of development simultaneously. The proper stage of seedling development for treatment in the post-emergence phase is as follows:
as §3, §4, §5, §6

Johnson grass (JG) [9] = assay: Post-emergence herbicide test; assay type: in vivo, Sorgum helepense; conditions: Sorghum halepense, 336 h, two weeks after treatment; for pest or weed control at 4483.4 g/ha: 4 lb/acre
Experimental: as §7, §2, §15, §8, §9, §10, §5, §6

Barnyard grass (BG) [10] = assay: Post-emergence herbicide test; assay type: in vivo; conditions: Echinochloa crus-galli, 336 h, two weeks after treatment; for pest or weed control at 4483.4 g/ha: 4 lb/acre
Experimental: as §11, §2, §15, §8, §9, §10, §5, §6

Turnip (TP) [11] = assay: Post-emergence herbicide test; assay type: in vivo, Brassica sp.; conditions: Brassica rapa, post-emergence, 336 h, two weeks after treatment; for pest or weed control at 2241.7 g/ha: 2 lb/acre; for pest or weed control at 4483.4 g/ha: 4 lb/acre
Experimental: as §12, §2, §15
Pigweed and turnips: 1 or 2 true leaves above visible cotyledons.
as §3, §4, §5, §6

Cotton (CT) [12] = assay: Post-emergence herbicide test; assay type: in vivo, Gossypium hirsutum var. DPL smooth leaf; conditions: Gossypium hirsutum, post-emergence, 336 h, two weeks after treatment; for pest or weed control at 2241.7 g/ha: 2 lb/acre; for pest or weed control at 4483.4 g/ha: 4 lb/acre
Experimental: as §13, §2, §15
Cotton: first true leaf 1' in length; expanded cotyledons.
as §3, §9, §10, §5, §6

Corn (CN) [13] = assay: Post-emergence herbicide test; assay type: in vivo; conditions: Zea mays, 336 h, two weeks after treatment; for pest or weed control: 2 lb/acre; for pest or weed control at 4483.4 g/ha: 4 lb/acre
Experimental: as §2, §15, §8, §9, §10, §5, §6

Bean (BN) [14] = assay: Post-emergence herbicide test; assay type: in vivo, Phaseolus vulgaris var. Black Valentine; conditions: Phaseolus vulgaris, post-emergence, 336 h, two weeks after treatment; for pest or weed control at 2241.7 g/ha: 2 lb/acre; for pest or weed control at 4483.4 g/ha: 4 lb/acre
Experimental: as §14, §2, §15
Beans: primary leaves expanded, growing point at primary leaf nodes.
as §3, §9, §10, §5, §6

`CCCSc1nnc(NC(=O)NC)s1` [Example 41, 1-Methyl-3-[5-n-Propylthio-2-(1,3,4-Thiadiazolyl)]Urea] was tested, and the pest or weed control (Crabgrass (CG) [1]) was 90%, the pest or weed control at 2241.7 g/ha (Johnson grass (JG) [2]) was 70% and the pest or weed control at 2241.7 g/ha (Barnyard grass (BG) [3]) was 50%. It also gave a pest or weed control at 2241.7 g/ha (Turnip (TP) [4]) of 60%, a pest or weed control at 2241.7 g/ha (Cotton (CT) [5]) of 50% and a pest or weed control at 2241.7 g/ha (Corn (CN) [6]) of 10%. It also gave a pest or weed control at 2241.7 g/ha (Bean (BN) [7]) of 30%, a pest or weed control (Crabgrass (CG) [8]) of 100% and a pest or weed control (Johnson grass (JG) [9]; 2 lb/acre) of 90%. For the same compound, the pest or weed control at 2241.7 g/ha (Barnyard grass (BG) [10]; 2 lb/acre) was 90%, the pest or weed control at 2241.7 g/ha (Turnip (TP) [11]) was 70% and the pest or weed control at 2241.7 g/ha (Cotton (CT) [12]) was 100%. The pest or weed control (Corn (CN) [13]) was 100% and the pest or weed control at 2241.7 g/ha (Bean (BN) [14]) was 70%.
For `CCCS(=O)(=O)c1nnc(NC(=O)NC)s1` [Example 62], the pest or weed control (Crabgrass (CG) [1]) was 90%, the pest or weed control at 4483.4 g/ha (Crabgrass (CG) [1]) was 90% and the pest or weed control at 2241.7 g/ha (Johnson grass (JG) [2]) was 40%. The pest or weed control at 4483.4 g/ha (Johnson grass (JG) [2]) was 40%, the pest or weed control at 2241.7 g/ha (Barnyard grass (BG) [3]) was 60% and the pest or weed control at 4483.4 g/ha (Barnyard grass (BG) [3]) was 60%. For the same compound, the pest or weed control at 2241.7 g/ha (Turnip (TP) [4]) was 80%, the pest or weed control at 4483.4 g/ha (Turnip (TP) [4]) was 40% and the pest or weed control at 2241.7 g/ha (Cotton (CT) [5]) was 100%. For the same compound, the pest or weed control at 4483.4 g/ha (Cotton (CT) [5]) was 100%, the pest or weed control at 2241.7 g/ha (Corn (CN) [6]) was 0% and the pest or weed control at 4483.4 g/ha (Corn (CN) [6]) was 0%. The pest or weed control at 2241.7 g/ha (Bean (BN) [7]) was 60%, the pest or weed control at 4483.4 g/ha (Bean (BN) [7]) was 50% and the pest or weed control (Crabgrass (CG) [8]) was 100%. It also gave a pest or weed control at 4483.4 g/ha (Crabgrass (CG) [8]) of 100%, a pest or weed control at 4483.4 g/ha (Johnson grass (JG) [9]) of 100% and a pest or weed control at 4483.4 g/ha (Barnyard grass (BG) [10]) of 80%. For the same compound, the pest or weed control at 2241.7 g/ha (Turnip (TP) [11]) was 100%, the pest or weed control at 4483.4 g/ha (Turnip (TP) [11]) was 100% and the pest or weed control at 2241.7 g/ha (Cotton (CT) [12]) was 90%. It also gave a pest or weed control at 4483.4 g/ha (Cotton (CT) [12]) of 100%, a pest or weed control (Corn (CN) [13]) of 100% and a pest or weed control at 4483.4 g/ha (Corn (CN) [13]) of 50%. For the same compound, the pest or weed control at 2241.7 g/ha (Bean (BN) [14]) was 100% and the pest or weed control at 4483.4 g/ha (Bean (BN) [14]) was 100%.
`CNC(=O)Nc1nnc(-c2cccc(C(F)(F)F)c2)s1` [Example 73] showed a pest or weed control at 4483.4 g/ha (Crabgrass (CG) [1]) of 0%, a pest or weed control at 4483.4 g/ha (Johnson grass (JG) [2]) of 0% and a pest or weed control at 4483.4 g/ha (Barnyard grass (BG) [3]) of 0%. For the same compound, the pest or weed control at 4483.4 g/ha (Turnip (TP) [4]) was 60%, the pest or weed control at 4483.4 g/ha (Cotton (CT) [5]) was 100% and the pest or weed control at 4483.4 g/ha (Corn (CN) [6]) was 50%. For the same compound, the pest or weed control at 4483.4 g/ha (Bean (BN) [7]) was 80%, the pest or weed control at 4483.4 g/ha (Crabgrass (CG) [8]) was 30% and the pest or weed control at 4483.4 g/ha (Johnson grass (JG) [9]) was 50%. For the same compound, the pest or weed control at 4483.4 g/ha (Barnyard grass (BG) [10]) was 40%, the pest or weed control at 4483.4 g/ha (Turnip (TP) [11]) was 60% and the pest or weed control at 4483.4 g/ha (Cotton (CT) [12]) was 50%. It also gave a pest or weed control at 4483.4 g/ha (Corn (CN) [13]) of 30% and a pest or weed control at 4483.4 g/ha (Bean (BN) [14]) of 40%.
For `CNC(=O)Nc1nnc(-c2ccccc2Cl)s1` [Example 74], the pest or weed control at 8966.8 g/ha (Crabgrass (CG) [1]; 8 lb/acre) was 20%, the pest or weed control at 8966.8 g/ha (Johnson grass (JG) [2]; 8 lb/acre) was 0% and the pest or weed control at 8966.8 g/ha (Barnyard grass (BG) [3]; 8 lb/acre) was 30%. It also gave a pest or weed control at 8966.8 g/ha (Turnip (TP) [4]; 8 lb/acre) of 50%, a pest or weed control at 8966.8 g/ha (Cotton (CT) [5]; 8 lb/acre) of 100% and a pest or weed control at 8966.8 g/ha (Corn (CN) [6]; 8 lb/acre) of 0%. The pest or weed control at 8966.8 g/ha (Bean (BN) [7]; 8 lb/acre) was 100%, the pest or weed control at 8966.8 g/ha (Crabgrass (CG) [8]; 8 lb/acre) was 70% and the pest or weed control at 8966.8 g/ha (Johnson grass (JG) [9]; 8 lb/acre) was 40%. For the same compound, the pest or weed control at 8966.8 g/ha (Barnyard grass (BG) [10]; 8 lb/acre) was 40%, the pest or weed control at 8966.8 g/ha (Turnip (TP) [11]; 8 lb/acre) was 80% and the pest or weed control at 8966.8 g/ha (Cotton (CT) [12]; 8 lb/acre) was 50%. It also gave a pest or weed control at 8966.8 g/ha (Corn (CN) [13]; 8 lb/acre) of 40% and a pest or weed control at 8966.8 g/ha (Bean (BN) [14]; 8 lb/acre) of 80%.
